Experimental data taken from patent US20250195556A1, “COMPOSITIONS, KITS, AND METHODS TO INDUCE ACQUIRED CYTORESISTANCE USING STRESS PROTEIN INDUCERS” (FRED HUTCHINSON CANCER RESEARCH CENTER, priority 2014, published 2025).
Values joined by “and” are separate entries in the source; they are usually repeats but may differ in a detail not shown here. Equal values may be shown once.

Tests used:
[1] = test system: HO-1; assay: Renal cortical HO-1 mRNA (RT-PCR) and protein (ELISA) after IV myoglobin, SnPP or both (Example 1); type: in vivo, mice
Source text: The Glycerol Model of AKI. This is a widely used model of rhabdomyolysis-induced AKI that has been employed worldwide for 50 years. The model was used to test whether prophylactic interventions confer protection against AKI. Basically, the protocol is as follows: Male CD-1 mice (35-45 grams), obtained from Charles River Laboratories, Wilmington, M A were studied. Mice were maintained under standard vivarium conditions and generally housed for 1-3 weeks prior to study. The mice were placed in a cylindrical restraining cage, and then were given a tail vein injection of the test substances (see below) or test substance vehicle. The mice were then returned to their cages. Eighteen hours (hrs) later, the mice were briefly anesthetized by isoflurane inhalation, and given an intramuscular injection of hypertonic (50%) glycerol in a dose of 9 ml/Kg body weight. The dose is divided in two, with half injected into the muscle of each of the hind limbs. The mice were then returned to their cages. Eighteen hrs later, the mice were deeply anesthetized with pentobarbital (50-100 mg/Kg), the abdominal cavity was opened through a midline abdominal incision, a blood sample was obtained from the abdominal vena cava and the kidneys were resected. A kidney cross section was obtained and fixed in formalin for subsequent histologic analysis. The terminal blood samples were analyzed for BUN and creatinine, using commercially available assay kits. The remaining kidney tissue was subjected to cortical dissection, and the cortical tissues were then extracted for protein and RNA. The protein samples were saved for analysis of HO-1 levels, and the RNA samples were subjected to RT-PCR to quantify HO-1 mRNA as well as levels of other stress gene mRNAs (e.g. NGAL, haptoglobin, hemopexin, hepicidin).
Myoglobin+SnPP: To 5 mg of dry myoglobin was added 0.9 ml of PBS+0.1 ml of a stock SnPP solution (50 umole/ml). The resulting final concentrations were 5 mg/ml myoglobin+5 umoles/ml of SnPP. The tail vein was injected with 200 μl of this solution, which equals 1 mg myoglobin+1 umole SnPP. […]
Four hr post myoglobin vs myoglobin+SnPP vs SnPP alone experiments. To confirm that the myoglobin+SnPP has a synergistic effect in inducing HO-1 mRNA and HO-1 protein levels, each of the above combinations have been administered alone via tail vein injection. Four hrs later, the mice were sacrificed as noted above and the kidneys were harvested for assessment of HO-1 mRNA and protein levels. For additional information regarding methods, see Zager et al., Am J Physiol Renal Physiol. 2014 Jul. 30. Pii.

[2] = test system: HO-1; assay: Renal cortical HO-1 mRNA and protein after IV N-Mgb, SnPP or both; type: in vivo, mice
Source text: (§1) Cytoresistance-inducing reagents. […] (#Mb0360; Sigma) was used as the primary cytoresistance-inducing agent. However, because myoglobin (Mgb) has an inherent nephrotoxic potential (particularly under conditions of volume depletion and aciduria), two approaches were used to mitigate Mgb's potential adverse effects. First, the Mgb was converted into a nitrited form by the addition of equimolar amount of sodium (Na) nitrite. In this regard, nitrite is an ambidentate molecule that directly binds 1:1 to myoglobin Fe either via its oxygen or nitrogen component. Cotton et al. Advanced inorganic chemistry. Hobocken, NJ: Wiley-Interscience, 1999:1355; Silaghi-Dumitrescu et al. Nitric Oxide 2014; 42 C: 32-9. […] Rassaf et al. Circ Res 2014; 114:1601-10; Totzeck et al. Circulation 2012; 126:325-34 [J Clin Invest 1992; 89:989-95]; Totzeck et al. PLOS One 2014; 22: e105951; Hendgen-Cotta et al. Proc Natl Acad Sci USA 2008; 105:10256-61.
(§2) Thirty-two mice were divided into 4 equal groups: (1) control mice; (2) mice treated with 1 mg of N-Mgb injection (as a bolus through the tail vein); (3) mice treated with […] of SnPP (via tail vein); and (4) mice treated with combined N-Mgb 1 SnPP. After either 4 hours (n=16) or 18 hours (n=16), the mice were deeply anesthetized with pentobarbital (50 mg/kg), the abdomen was opened through a midline abdominal incision, and the kidneys were removed. To determine potential effects on extrarenal organs, a liver lobe and the heart were also removed. The tissues were iced and then extracted for protein and RNA (RNeasy Plus Mini; Qiagen, Valencia, California) and subjected to enzyme linked immunosorbent assay (ELISA) and reverse transcriptase polymerase chain reaction (RT-PCR) for HO-1, haptoglobin, and IL-10 protein and messenger RNAs (mRNAs). Zager et al. J Am Soc Nephrol 2014; 25:998-1012; Zager et al. Am J Physiol 2012; 303: F139-48. As an assessment of renal function, control mice and the 18 hour after N-Mgb+SnPP-treated mice had blood urea nitrogen (BUN) and plasma creatinine levels measured. Additionally, transverse 10% formalin fixed kidney sections ([…]) were cut and stained with hematoxylin and eosin (H&E) and periodic acid Schiff (PAS) to further assess potential injury.

[3] = test system: haptoglobin; assay: Renal cortical haptoglobin mRNA and protein after IV N-Mgb, SnPP or both; type: in vivo, mice
Source text: as §1, §2

[4] = test system: IL-10; assay: Renal cortical IL-10 mRNA and protein after IV N-Mgb, SnPP or both; type: in vivo, mice; conditions: for Kidney protein: IL-10: control 304
Source text: as §1, §2

[5] = test system: haptoglobin; assay: Liver haptoglobin mRNA and protein after IV N-Mgb, SnPP or both; type: in vivo, mice; parameters: Liver protein: Haptoglobin: unit not given beside the values; conditions: for Liver mRNA: Haptoglobin: control 0.5; for Liver protein: Haptoglobin: control 115.3
Description: as §2

[6] = test system: IL-10; assay: Liver IL-10 mRNA and protein after IV N-Mgb, SnPP or both; type: in vivo, mice; conditions: for Liver mRNA: IL-10: control 0.06; for Liver protein: IL-10: control 314
Description: as §2

[7] = test system: HO-1; assay: Cardiac HO-1 mRNA and protein after IV N-Mgb, SnPP or both; type: in vivo, mice; conditions: for Cardiac mRNA: HO-1: control 0.07
Description: as §2

[8] = test system: haptoglobin; assay: Cardiac haptoglobin mRNA and protein after IV N-Mgb, SnPP or both; type: in vivo, mice; conditions: for Cardiac mRNA: Haptoglobin: control 0.31; for Cardiac protein: Haptoglobin: control 15.6
Description: as §2

[9] = Berglund et al. Hepatology 1988; cited from earlier work
[10] = test system: cultured proximal tubule (HK-2) cells; conditions: Zager & Burkhart, Kidney Int 1997; cited from earlier work

## C=Cc1c2[n-]c(c1C)/C=c1\[n-]/c(c(C)c1C=C)=C\c1[n-]c(c(CCC(=O)O)c1C)/C=c1\[n-]c(c(C)c1CCC(=O)O)=C2.[Sn+4] [SnPP, tin protoporphyrin, reference compound]
[1]; cortex, 4 hr IV, 1 mg myoglobin, 1 μmole SnPP, PBS 13.5, carrier 21.5
  HO-1 protein expression (by ELISA), Average: 34.4 ng HO-1/mg protein
[1]; cortex, 4 hr IV, 1 mg myoglobin, 1 μmole SnPP, individual mice
  HO-1 protein expression (by ELISA): 31.5 ng HO-1/mg protein and 20.5 ng HO-1/mg protein and 53.6 ng HO-1/mg protein and 32.2 ng HO-1/mg protein
[1]; kidney, 4 hr post IV injection, control average 1.93
  HO-1/GAPDH mRNA, Average: 6.94
[1]; kidney, 4 hr post IV injection, individual mice
  HO-1/GAPDH mRNA: 9.72 and 8.25 and 6.95 and 2.85
[2]; 4 h after Rx, control 0.61
  Kidney mRNA: HO-1: 4.38 ± 0.28
[2]; 4 h after Rx, control 13.3
  Kidney HO-1 protein: 22.9 ± 2.6
[2]; 18 h after Rx, control 0.61
  Kidney mRNA cortex: HO-1: 0.63 ± 0.06
[2]; 18 h after Rx, control 13.3
  Kidney protein: HO-1: 18 ± 2
[3]; 4 h after Rx, control 0.20
  Kidney mRNA: Haptoglobin: 0.19 ± 0.01
[3]; 4 h after Rx, control 7.9
  Kidney protein: Haptoglobin: 13.1 ± 1.3
[3]; 18 h after Rx, control 0.20
  Kidney mRNA cortex: Haptoglobin: 0.23 ± 0.08
[3]; 18 h after Rx, control 10.3
  Kidney protein: Haptoglobin: 53.5 ± 17.2
[4]; 4 h after Rx, control 0.56
  Kidney mRNA: IL-10: 0.39 ± 0.15
[4]; 4 h after Rx
  Kidney protein: IL-10: 550 ± 86
[4]; 18 h after Rx, control 0.56
  Kidney mRNA cortex: IL-10: 0.18 ± 0.09
[4]; 18 h after Rx
  Kidney protein: IL-10: 454 ± 51
[5]; 4 h after Rx
  Liver mRNA: Haptoglobin: 0.32 ± 0.02
  Liver protein: Haptoglobin: 130.0 ± 8.9
[5]; 18 h after Rx
  Liver mRNA: Haptoglobin: 0.65 ± 0.17
  Liver protein: Haptoglobin: 212.0 ± 63.6
[6]; 4 h after Rx
  Liver mRNA: IL-10: 0.14 ± 0.1
  Liver protein: IL-10: 485 ± 47
[6]; 18 h after Rx
  Liver mRNA: IL-10: 0.05 ± 0.01
  Liver protein: IL-10: 8198 ± 725
[7]; 4 h after Rx
  Cardiac mRNA: HO-1: 0.14 ± 0.01
[7]; 18 h after Rx
  Cardiac mRNA: HO-1: 0.09 ± 0.03
[7]; 18 h after Rx, control 1.5
  Cardiac protein: HO-1: 2.67 ± 0.4
[8]; 4 h after Rx
  Cardiac mRNA: Haptoglobin: 0.52 ± 0.21
  Cardiac protein: Haptoglobin: 19.1 ± 2.1
[8]; 18 h after Rx
  Cardiac mRNA: Haptoglobin: 0.59 ± 0.17
  Cardiac protein: Haptoglobin: 96.1 ± 36.2
[9]
  half-life: 2 to 4 h
[10]
  Reduction of Mgb toxicity by SnPP addition: ≤ 85%
